Assay results: US9694010B2, “Therapeutic formulation and methods of treatment” (MacuCLEAR, Inc., priority 2012, dated 2017)
Where a name gives a salt, the structure may show the parent alone. Read-outs that look alike come from different tables or passages of the source.

Legend:
ARPE-19 cells [1] = conditions: 24 hours; for cell viability (maximum protection): P<0.001
Experimental: (§1) The human RPE cell line ARPE-19 (ATCC; Manassas, Va.) was cultured in Dulbecco's Modified Essential Medium (DMEM) supplemented with 10% fetal bovine serum, 50 units/mL penicillin-streptomycin and 2.5 mM glutamine at 37° incubation with 5% CO2. The cell line was not transformed and had structure and function properties characteristic of RPE in vivo. The cells were seeded into 96-well plates, and subconfluent cell monolayers were studied within 3 to 10 passages. Before starting the experimental procedures, the medium was removed and replaced with phenol red-free low-glucose DMEM supplemented with 1% calf serum, 0.06% glutamine, and 1% penicillin-streptomycin.
(§2) The cells were used for experiments when they reached 80% confluence to prevent contact inhibition.
(§3) After the 24-hour exposure, the MTT reagent solution (5 mg/mL) was added to each well in a ratio of 1:10 MTT reagent:culture medium volume. The cultures were incubated with the MTT reagent for 3 hours at 37° C. At the end of incubation, the MTT solution was removed, and 0.1 mL of dimethyl sulfoxide (DMSO) was added to each well to solubilize the purple formazan product. The proportion of viable cells was determined by measuring the optical density (OD) of each sample at 570 nm (A570) using a SpectraCount plate reader (Packard BioScience, Meridan, Conn.). The relationship between the OD readings in the MTT colorimetric assay and the exact cell number was determined by seeding cells at identical densities and then performing the MTT assay and manual hemocytometer cell counts on parallel replicate cultures. Trypan blue was added to the hemocytometer cultures so that only viable, dye-excluding cells were counted. This approach enabled the establishment of a standard curve for A570 versus cell number.
(§4) All data were presented as mean±standard error. A nonpaired Student t test was performed to analyze the significance between 2 means at a certain time point. The differences were considered significant at P<0.05. Results for nitric oxide measurements were expressed in μM nitrite and nitrate per 1×10^6 cells.

[2] = all subjects
Text: Subjects in the dry AMD group had evidence of small and intermediate drusen, minimal or no pigment abnormalities in the macula (i.e., risk factor 2 on the AREDS Simplified Grading Scale), and a Snellen equivalent best corrected visual acuity (BCVA) equal to or better than 20/100.
The patients received 1 drop of test material in one eye and vehicle control in the contra-lateral eye. The patients administered the first dose of each day in the clinical setting and self-administered the remaining two doses of the day at prescribed time points.
On days 2 and 3, the evaluations were after the first two time-points. The 7th dose was administered in the morning on day 3. Seven days after the final dose, patients were contacted via telephone to evaluate any post study adverse events or issues.

[3] = Experimental: Choroidal blood flow, velocity and volume were assessed following the first dosing of test material on each day. […] Measurements were made using a Laser Doppler Flowmetry device, which is a state-of-the-art, non-invasive and quantitative approach for visualizing and measuring subfoveal choroidal blood flow.
There was a trend of increased mean choroidal blood volume and velocity values in hydralazine hydrochloride-treated eyes, which peaked approximately 2 hours after topical ocular dosing on day 1 and returned to baseline values approximately 4 hours after dosing (i.e., 2 hours later). […] By contrast, in normal/healthy subjects both mean values and associated standard deviations (SDs) remained low at all time points on day 1. • Odds ratio analyses of the choroidal blood flow outcomes between the AMD and Normal groups for day 1 were evaluated.

rabbit eye = assay: 28-day repeat dose ocular toxicity; format: in vivo, Dutch Belted rabbits
Experimental: Hydralazine hydrochloride ophthalmic solutions were prepared essentially as described in Example 1 at concentrations of 0.0% (vehicle), 0.5% hydralazine hydrochloride, 1.0% hydralazine hydrochloride, and 2.0% hydralazine hydrochloride. The formulation, vehicle or control was administered daily for 28 days to the designated eye of forty Dutch Belted rabbits (5 males and 5 females per group) as shown in Table 2. […]
A modified Hackett and McDonald microscopic ocular grading system (Hackett 1996) was applied to ocular findings following the use of a slit-lamp biomicroscope, which included insertion of a blue filter to assess for fluorescein dye retention. For any evaluated microscopic ocular examination parameter, there were no statistically significant differences, in either male or female rabbits, between Group 1 and Groups 2-4 during the pre dose or Day 29 study measurement periods.
Mean tonometry (Tono-pen; Reichert Ophthalmic Instruments, Depew, N.Y.) readings of IOP in control and test rabbits pre-dose and on Day 29 were between 15-25 mmHg, which is within the normal physiologic range. […]

[4] = 25° C., pH 3.5, cationic form; obtained by extrapolation
Text: In one embodiment, the hydralazine for use in the formulation is a hydralazine salt such as hydralazine hydrochloride.

ARPE-19 cells [5] = assay: tBHP-induced toxicity, MTT assay; conditions: 24 hours; for cell viability (maximum protection): 100 μg/mL of hydralazine, P<0.001
Experimental: as §1, §2, §3, §4

[6] = tested on: Human Umbilical Vein Endothelial Cells (HUVEC); assay: In vitro tube formation; conditions: 100 μg/ml, 48 hours
[7] = cited from earlier work; for systemic bioavailability: gastrointestinal absorption
ARPE-19 cells [8] = conditions: NaN3 0.1-100 mM, hydralazine 1, 3, 10, 30, 100 μg/mL
Experimental: RPE cells were washed and replaced with fresh DMEM-F12 medium containing various concentrations of NaN3 (0.1 mM-100 mM). […] Reactions were stopped by washing out the medium.

ARPE-19 cells [9] = conditions: 1% O2, 1 μg/mL of hydralazine, P<0.001
Experimental: In vitro hypoxia treatment was carried out using a ProOx hypoxia system. […] In hypoxia, oxygen concentrations of 1% O2 and 5% CO2 were maintained using a temperature- and humidity-controlled environmental C-chamber by O2 and CO2 controllers (ProOx Model 110 and ProCO2 Model 120; BioSpherix Ltd., Redfield, N.Y.) with N2 and CO2 gas sources. Reactions were stopped by washing out the medium, and 5 mg/mL MTT at a dilution of 1:10 based on the volume of culture medium was added for 3 hours at 37° C. At the end of incubation, the MTT solution was removed, and the cells were dissolved in 0.1 mL/well DMSO. The proportion viable cells were determined by measuring the OD of each sample at 570 nm using a SpectraCount plate reader (Packard BioScience, Meridan, Conn.).

OO [Formulation H2O2, hydrogen peroxide]
cell viability (ARPE-19 cells [1]; 0.3 mM H2O2 alone): 48.74%±2.40%
cell viability (ARPE-19 cells [1]; 1.0 mM H2O2 alone): 41.28%±0.80%

NNc1nncc2ccccc12 [hydralazine hydrochloride, Hydralazine hydrochloride]
average time to resolution of ocular hyperemia ([2]; range 1 to 4 days): 1.85 days
ocular hyperemia, treated eyes ([2]; hydralazine hydrochloride-treated eyes, 1 vehicle-treated eye): 21 eyes
odds ratio, choroidal blood volume outcome, AMD vs Normal group ([3]; day 1, 60 minute time point (p=0.337)): 0.22
odds ratio, choroidal blood volume outcome, AMD vs Normal group ([3]; day 1, 120 minute time point (p=0.106)): 6.67
time of peak of mean choroidal blood volume and velocity ([3]; day 1, after topical ocular dosing, back to baseline approximately 4 hours after dosing): approximately 2 hours
choroidal blood flow, mean scores ([3]; treated eyes in AMD subjects): trend towards improved mean scores
dose-related toxicologic changes (rabbit eye; 28 days of daily topical ocular treatment, 0.5-2.0%, 40 μL): did not result in the development of significant doserelated toxicologic changes
ocular histopathology (rabbit eye; daily application of up to 2.0% for 28 days): did not result in the development of ocular pathology, inflammation, degeneration, or histologic evidence of toxicity
rate constant (time with less than a 10% loss) [4]: 1.5 years

NNc1nncc2ccccc12 [hydralazine]
cell viability (maximum protection) (ARPE-19 cells [1]; insult 0.3 mM H2O2 (second statement), 30 μg/mL of hydralazine): 68.04%±0.67%
cell viability (maximum protection) (ARPE-19 cells [1]; insult 0.3 mM H2O2, 30 μg/mL of hydralazine): 74.30% ±0.80%
cell viability (maximum protection) (ARPE-19 cells [5]; insult 0.01 mM tBHP): 109.99%±2.41%
cell viability (maximum protection) (ARPE-19 cells [5]; insult 0.03 mM tBHP): 100.84%±13.00%
effect on HUVEC [6]: caused apoptosis
systemic clearance ([7]; exceeds hepatic blood flow): 50 mL/min/kg
systemic bioavailability ([7]; fast acetylators): 16%
systemic bioavailability ([7]; slow acetylators): 35%
plasma half-life ([7]; in vivo): 3 to 7 h
time of peak concentration in plasma and maximal hypotensive effect ([7]; orally administered): 30 to 120 min
effect on NaN3 chemically-induced hypoxia (viable cells) (ARPE-19 cells [8]): no significant effect
cell viability (maximum reversion) (ARPE-19 cells [9]; 48 hours): 101.21%±0.54%
cell viability (maximum reversion) (ARPE-19 cells [9]; 72 hours): 103.55%±1.75%

CC(C)(C)OO [tBHP, Tert-Butyl hydroperoxide]
cell viability (ARPE-19 cells [5]; 0.01 mM tBHP alone): 89.90%±2.80%
cell viability (ARPE-19 cells [5]; 0.03 mM tBHP alone): 55.80%±4.08%
